{"source": "patent US11344578B2", "about": "“Immune cells expressing engineered antigen receptors” (Board of Regents, The University of Texas System, priority 2017, dated 2022)", "key": {"TGFβ-RII": {"tested_on": "TGFβ-RII", "assay": "CRISPR/CAS9 knockout of TGFβ-RII in CAR NK cells", "assay_type": "cell-based", "details": "Cas9 plus gRNA targeting Exon 3; FIG. 6A", "procedure": "Next, CRISPR-CAS9 was used to knockout TGFβ in CAR NK cells to render CAR NK cells resistant to the immunosuppressive effect of exogenous TGFβ. […] Wild type and TGF-β-RII knockout NK cells were treated with 10 ng/ml of recombinant TGF-β for 48 hrs and their response to K562 targets was assessed. […] TGFβ-RII knockout by CRISPR/CAS9 technology was also found to abrogate downstream Smad-2/3 phosphorylation in response to 10n g/ml of recombinant TGF-β compared to NK cells treated with CAS9 alone (FIG. 6C). Thus, CRISPR-CAS9-mediated knockout of TGFβ-RII renders NK cells resistant to TGFβ."}, "iC9/CS1/IL15+NK cells": {"tested_on": "iC9/CS1/IL15+NK cells", "assay": "Inducible caspase-9 suicide gene test, annexin-V-7AAD staining", "assay_type": "cell-based", "details": "10 nM CID AP20187 added to cultures", "procedure": "Because of concerns over autonomous, uncontrolled NK-cell growth due to autocrine production of IL-15, a suicide gene based on the inducible caspase-9 (IC9) gene was incorporated into the construct. To test the inducible caspase-9 suicide gene that was incorporated into the retroviral vector, 10 nM of CID AP20187 was added to cultures of iC9/CS1/IL15+NK cells. The AP20187 induced apoptosis/necrosis of transgenic cells within 4 hours as assessed by annexin-V-7AAD staining."}, "glucocorticoid receptor": {"tested_on": "glucocorticoid receptor", "assay": "PCR based screening of glucocorticoid receptor knockout in hematopoietic cells", "assay_type": "cell-based", "details": "T cells and NK cells; CRISPR-CAS9; FIG. 3", "description": "To produce steroid-resistant immune cells, the CRISPR-CAS9 system was used to knockout glucocorticoid receptor in hematopoietic cells using gRNA SEQ ID NOs:1-2."}, "Raji leukemic B cells": {"tested_on": "Raji leukemic B cells", "assay": "Luciferase-expressing Raji NSG mouse model, in vivo bioluminescence imaging and survival", "details": "effect of IL-15 in the construct", "description": "To determine the anti-leukemic effect of the CAR-transduced NK cells, they were infused into a “humanized” mouse model of lymphoblastic leukemia, the luciferase-expressing Raji NSG mouse model. To monitor the trafficking of CAR-CD191+CB-NK cells to tumor sites in vivo, the cells were labeled with the FFLuc vector, enabling monitoring by bioluminescence imaging. Engrafted mice received […] Raji leukemic B cells (2×10^6) injected intravenously and labeled with the RLuc vector to monitor tumor growth. Six to 10 days after tumor engraftment, mice were infused intravenously with 2×10^7 expanded CB-NK cells that were unmodified or CD19-CD28-zeta-2A-IL15 CB-NK cells labeled with FFLuc. All imaging was performed once a week for 3 weeks. Four groups of animals (n=10 per group) were studied, and the spleens, blood and lymph nodes of the mice were collected after they were euthanized."}}, "note": "“Also recorded” adds a separate entry of the source.", "data": [{"compound": "gRNA SEQ ID NOs:3-4: guide RNAs EX3 TGFBR2 sG1 and sG2 used with Cas9 to knock out TGFβ-RII (guide 1 CGGCTGAGGAGCGGAAGA; guide 2 TGGAGGTGAGCAATCCCC; used with Cas9, further chemistry not given here)", "values": [{"measurement": "knockout of TGFβ-RII", "setting": "TGFβ-RII", "result": "Successful knockout"}]}, {"compound": "CC[C@H](C(=O)N1CCCC[C@H]1C(=O)O[C@H](CCc1ccc(OC)c(OC)c1)c1cccc(OCC(=O)NCC(CNC(=O)COc2cccc([C@@H](CCc3ccc(OC)c(OC)c3)OC(=O)[C@@H]3CCCCN3C(=O)[C@@H](CC)c3cc(OC)c(OC)c(OC)c3)c2)CN(C)C)c1)c1cc(OC)c(OC)c(OC)c1", "note": "[AP20187]", "values": [{"measurement": "time to apoptosis/necrosis of transgenic cells", "setting": "iC9/CS1/IL15+NK cells", "result": "≤ 4", "unit": "h"}]}, {"compound": "gRNA SEQ ID NOs:1-2: guide RNAs Ex3 NR3C1 sG1 and sG2 used with CAS9 to knock out glucocorticoid receptor (guide 1 TGCTGTTGAGGAGCTGGA; guide 2 AGCACACCAGGCAGAGTT; used with Cas9, further chemistry not given here)", "values": [{"measurement": "glucocorticoid receptor knockout by PCR based screening", "setting": "glucocorticoid receptor", "result": "efficient knockdown"}]}, {"compound": "IL-15: interleukin-15 co-expressed from the CAR construct in NK cells", "values": [{"measurement": "NK-CAR mediated killing of tumor", "setting": "Raji leukemic B cells; FIG. 2A", "result": "enhances; also recorded: increase"}, {"measurement": "survival", "setting": "Raji leukemic B cells; FIG. 2B", "result": "prolong survival"}]}]}
